These results are taken from patent US6680289B1, “Methods, compositions, and articles for odor control” (The Proctor & Gamble Company, priority 1999, dated 2004).

The conditions of series [1]: cited from earlier work.
The nature of series [2]: Interaction of perfume components with cyclodextrin (CD). Format: physicochemical. As to conditions: perfume component with cyclodextrin. The source says: The following table illustrates the molecular weight property of some of the preferred perfume versus non-preferred perfume components.

Consider `ClC=CC[N+]12CN3CN(CN(C3)C1)C2.[Cl-]` [Dowicil 200, 1-(3-Chlorallyl) -3,5,7-triaza-1-azoniaadamantane chloride], for which the “solubility in water” value in series [1] is “freely soluble in water”.
Turning to `CCC(C)(O)CCCC(C)C` (centres unmarked) [Tetrahydrolinalol], the CD interaction result in series [2] is “significant”.
